Measured values as given in PubChem BioAssay AID1963874 (Molecular Pharmacology Branch, DTP, NCI, 2024).

Tested on: 253994-281-T-J1-PDC KRAS-mutant spheroids with HUVEC/MSC, viability
Test: Anticancer human tumor 253994-281-T-J1-PDC patient-derived colorectal carcinoma cell line growth inhibition [KRAS2]
Settings: for IC50: curve of first compound; for viability, T/C: stronger effect = lower value; active = viability on the fitted dose curve at most 10% of control; inactive = the rest
Procedure, shortened: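 KRAS-mutant tumor cells were grown as spheroids with HUVEC endothelial cells and human MSCs as stroma. Targeted agents were tested alone and with KRAS pathway inhibitors. Doses started at or near clinical Cmax, or 10 microM, descending half-log.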

[1] = second compound 0.0316 µM, first compound 0.0316 µM
[2] = second compound 0.0316 µM, first compound 0.1 µM
[3] = second compound 0.0316 µM, first compound 0.316 µM
[4] = second compound 0.0316 µM, first compound 1 µM
[5] = second compound 0.0316 µM, first compound 3.16 µM
[6] = second compound 0.0316 µM, first compound 10 µM
[7] = second compound 0.1 µM, first compound 0.0316 µM
[8] = second compound 0.1 µM, first compound 0.1 µM
[9] = second compound 0.1 µM, first compound 0.316 µM
[10] = second compound 0.1 µM, first compound 1 µM
[11] = second compound 0.1 µM, first compound 3.16 µM
[12] = second compound 0.1 µM, first compound 10 µM
[13] = second compound 0.316 µM, first compound 0.0316 µM
[14] = second compound 0.316 µM, first compound 0.1 µM
[15] = second compound 0.316 µM, first compound 0.316 µM
[16] = second compound 0.316 µM, first compound 1 µM
[17] = second compound 0.316 µM, first compound 3.16 µM
[18] = second compound 0.316 µM, first compound 10 µM
[19] = second compound 1 µM, first compound 0.0316 µM
[20] = second compound 1 µM, first compound 0.1 µM
[21] = second compound 1 µM, first compound 0.316 µM
[22] = second compound 1 µM, first compound 1 µM
[23] = second compound 1 µM, first compound 3.16 µM
[24] = second compound 1 µM, first compound 10 µM
[25] = second compound 3.16 µM, first compound 0.0316 µM
[26] = second compound 3.16 µM, first compound 0.1 µM
[27] = second compound 3.16 µM, first compound 0.316 µM
[28] = second compound 3.16 µM, first compound 1 µM
[29] = second compound 3.16 µM, first compound 3.16 µM
[30] = second compound 3.16 µM, first compound 10 µM
[31] = second compound 10 µM, first compound 0.0316 µM
[32] = second compound 10 µM, first compound 0.1 µM
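Also: spheroids exposed to agents for seven days before readout.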
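For viability, T/C in this document: percent of DMSO vehicle control viability.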

CC1(C)CCC(CN2CCN(c3ccc(C(=O)NS(=O)(=O)c4ccc(NCC5CCOCC5)c([N+](=O)[O-])c4)c(Oc4cnc5[nH]ccc5c4)c3)CC2)=C(c2ccc(Cl)cc2)C1 + C=CC(=O)N1CCN(c2nc(OCC3CCCN3C)nc3c2CCN(c2cccc4cccc(C)c24)C3)CC1CC#N
4900 nM: IC50 (second compound 1 µM)
active: viability, T/C [29] 0.66% | viability, T/C [30] 0.3%
6520 nM: IC50 (second compound 0.1 µM)
> 10000 nM: IC50 (second compound 0.0316 µM)
8920 nM: IC50 (second compound 0.316 µM)
inactive: viability, T/C [1] 110% | viability, T/C [2] 98.6% | viability, T/C [3] 102% | viability, T/C [4] 90.6% | viability, T/C [5] 84.5% | viability, T/C [6] 56.7% | viability, T/C [7] 96.9% | viability, T/C [8] 89% | viability, T/C [9] 87.4% | viability, T/C [10] 90.2% | viability, T/C [11] 64.8% | viability, T/C [12] 41.2% | viability, T/C [13] 102% | viability, T/C [14] 99.2% | viability, T/C [15] 95.6% | viability, T/C [16] 92.8% | viability, T/C [17] 87.1% | viability, T/C [18] 45.7% | viability, T/C [19] 83.6% | viability, T/C [20] 94.5% | viability, T/C [21] 91.7% | viability, T/C [22] 79.3% | viability, T/C [23] 64.3% | viability, T/C [24] 27.8% | viability, T/C [25] 18.6% | viability, T/C [26] 25.2% | viability, T/C [27] 22% | viability, T/C [28] 9.94%
< 31.6 nM: IC50 (second compound 3.16 µM)

COc1cc(OC)cc(N(CCNC(C)C)c2ccc3ncc(-c4cnn(C)c4)nc3c2)c1
inactive: viability, T/C (compound 0.0316 µM) 98.1% [middle of 5 runs] | viability, T/C (compound 0.1 µM) 92% [middle of 5 runs] | viability, T/C (compound 0.316 µM) 92.8% [middle of 5 runs] | viability, T/C (compound 1 µM) 88.1% [middle of 5 runs] | viability, T/C (compound 3.16 µM) 89.4% [middle of 5 runs]

CC(C)n1nc(-c2ccc3oc(N)nc3c2)c2c(N)ncnc21 + CNCc1ccccc1-c1csc(C(C)Nc2nc(C)nc3cc(OC)c(OC)cc23)c1
> 100 nM: IC50 (second compound 0.1 µM) | IC50 (second compound 0.316 µM) | IC50 (second compound 1 µM)
inactive: viability, T/C (second compound 0.1 µM, first compound 0.000316 µM) 96.7% | viability, T/C (second compound 0.1 µM, first compound 0.001 µM) 86.8% | viability, T/C (second compound 0.1 µM, first compound 0.00316 µM) 74.5% | viability, T/C (second compound 0.1 µM, first compound 0.01 µM) 75.8% | viability, T/C [7] 79.7% | viability, T/C [8] 50.8% | viability, T/C (second compound 0.316 µM, first compound 0.000316 µM) 91% | viability, T/C (second compound 0.316 µM, first compound 0.001 µM) 87.5% | viability, T/C (second compound 0.316 µM, first compound 0.00316 µM) 82.7% | viability, T/C (second compound 0.316 µM, first compound 0.01 µM) 73.2% | viability, T/C [13] 78.1% | viability, T/C [14] 57% | viability, T/C (second compound 1 µM, first compound 0.000316 µM) 93.3% | viability, T/C (second compound 1 µM, first compound 0.001 µM) 78% | viability, T/C (second compound 1 µM, first compound 0.00316 µM) 79.3% | viability, T/C (second compound 1 µM, first compound 0.01 µM) 76.8% | viability, T/C [19] 73.3% | viability, T/C [20] 51% | viability, T/C (second compound 3.16 µM, first compound 0.000316 µM) 37.9% | viability, T/C (second compound 3.16 µM, first compound 0.001 µM) 45.2% | viability, T/C (second compound 3.16 µM, first compound 0.00316 µM) 56.9% | viability, T/C (second compound 3.16 µM, first compound 0.01 µM) 9.64% | viability, T/C [25] 42.3% | viability, T/C [26] 28.2%
< 0.316 nM: IC50 (second compound 10 µM)
active: viability, T/C (second compound 10 µM, first compound 0.000316 µM) 0.12% | viability, T/C (second compound 10 µM, first compound 0.001 µM) 0.13% | viability, T/C (second compound 10 µM, first compound 0.00316 µM) 0.13% | viability, T/C (second compound 10 µM, first compound 0.01 µM) 0.11% | viability, T/C [31] 0.13% | viability, T/C [32] 0.18%
0.316 nM: IC50 (second compound 3.16 µM)

Cn1nccc1Nc1nccc(-c2cc3c(s2)C(C)(C)N(CCN2CCOCC2)C3=O)n1 + COc1cc2nc(C)nc(NC(C)c3cc(N)cc(C(F)(F)F)c3)c2cc1OC1CCOC1
850 nM: IC50 (second compound 0.316 µM)
507 nM: IC50 (second compound 3.16 µM)
340 nM: IC50 (second compound 10 µM)
1100 nM: IC50 (second compound 0.1 µM)
active: viability, T/C (second compound 10 µM, first compound 3.16 µM) 7.12% | viability, T/C (second compound 10 µM, first compound 10 µM) 2.36%
753 nM: IC50 (second compound 1 µM)
inactive: viability, T/C [7] 107% | viability, T/C [8] 89.5% | viability, T/C [9] 85.2% | viability, T/C [10] 52.4% | viability, T/C [11] 24.8% | viability, T/C [12] 19.6% | viability, T/C [13] 92% | viability, T/C [14] 96.6% | viability, T/C [15] 78% | viability, T/C [16] 45.9% | viability, T/C [17] 22.8% | viability, T/C [18] 19% | viability, T/C [19] 92.3% | viability, T/C [20] 92.1% | viability, T/C [21] 72.9% | viability, T/C [22] 41.5% | viability, T/C [23] 27% | viability, T/C [24] 17.9% | viability, T/C [25] 96.5% | viability, T/C [26] 77.5% | viability, T/C [27] 62% | viability, T/C [28] 36.9% | viability, T/C [29] 18.3% | viability, T/C [30] 14.2% | viability, T/C [31] 78.7% | viability, T/C [32] 68.8% | viability, T/C (second compound 10 µM, first compound 0.316 µM) 54% | viability, T/C (second compound 10 µM, first compound 1 µM) 16.9%

Cn1nccc1Nc1nccc(-c2cc3c(s2)C(C)(C)N(CCN2CCOCC2)C3=O)n1 + C=CC(=O)N1CCN(c2nc(OCC3CCCN3C)nc3c2CCN(c2cccc4cccc(C)c24)C3)CC1CC#N
181 nM: IC50 (second compound 3.16 µM)
2630 nM: IC50 (second compound 0.1 µM)
3040 nM: IC50 (second compound 1 µM)
2150 nM: IC50 (second compound 0.316 µM)
active: viability, T/C [29] 4.92% | viability, T/C [30] 1.02%
inactive: viability, T/C [1] 92.7% | viability, T/C [2] 99% | viability, T/C [3] 89.1% | viability, T/C [4] 72.4% | viability, T/C [5] 62.2% | viability, T/C [6] 28% | viability, T/C [7] 92.3% | viability, T/C [8] 96.3% | viability, T/C [9] 88.7% | viability, T/C [10] 73.5% | viability, T/C [11] 45.6% | viability, T/C [12] 29.4% | viability, T/C [13] 95.5% | viability, T/C [14] 103% | viability, T/C [15] 96.7% | viability, T/C [16] 67.4% | viability, T/C [17] 43.1% | viability, T/C [18] 30.4% | viability, T/C [19] 107% | viability, T/C [20] 98.9% | viability, T/C [21] 73.9% | viability, T/C [22] 80.3% | viability, T/C [23] 44.6% | viability, T/C [24] 27.4% | viability, T/C [25] 64% | viability, T/C [26] 53.6% | viability, T/C [27] 45.2% | viability, T/C [28] 20.8%
4450 nM: IC50 (second compound 0.0316 µM)
